Counter-ions that a name gives are not always drawn.
Legend:
Format in all cases: cell-based
[1] = tested on: β2V2R-βarr internalization; test: DiscoveRx PathHunter activated receptor endocytosis assay in U2OS cells; conditions: series of compound concentrations, 30 min pretreatment, isoproterenol dose-response
Experimental: β-arrestin-mediated activated receptor internalization was measure using the DiscoveRx PathHunter activated receptor endocytosis assay according to the manufacturer's protocols (DiscoverRx, Fremont, Calif.). Briefly, an Enzyme Acceptor (EA)-tagged βarr and a ProLink tag localized to endosomes are stably expressed in U2OS cells. Untagged β2V2R is transiently expressed (4 ug of DNA). The next day, cells (25,000 cells per well) were then seeded in white 96-well clear-bottomed assay plates and incubated for 24 h before experiments. On the day of experiment, cells were first treated with compound or vehicle for 30 min, followed by a series concentrations of agonist (Iso) stimulation for 60 min at 37° C. Receptor internalization was detected as luminescence resulting from the complementation of β-galactosidase fragments (Enzyme Acceptor and ProLink) within endosomes. Luminescence signals were measured on a CLARIOstar microplate reader using the PathHunter Detection kit (DiscoveRx).

[2] = tested on: β2AR; test: FRET-based cAMP accumulation (ICUE2 HEK293 cells), receptor desensitization; conditions: ICUE cells pretreated with inhibitor
Experimental: The Epac2 (ICUE2) sensor contains a CFP and YFP FRET pair. HEK293 cells stably expressing the ICUE2 cells were plated in poly-D-lysine-coated black 96 well plates (Corning) at a cell density of 50,000 cells per well. 16 hours after plating, cells were PBS-washed, then incubated in HEPES-buffered saline solution (150 mM NaCl, 5 mM KCl, 1 mM MgCl2, 2 mM CaCl2, 10 mM glucose, and 10 mM HEPES, pH 7.4) for one hour.

[3] = tested on: V2R; test: BRET based receptor internalization assay; conditions: V2R-expressing cells stimulated with AVP
Experimental: BRET-based assays were performed to measure receptor internalization using two complementary bystander BRET-formats. First, the association of the receptor (β2V2R-RlucII or V2R-RlucII, BRET donor) with the early endosome (2×FYVE-mVenus, BRET acceptor) was directly measured following agonist stimulation as described previously (Smith, J. S. et al. C-X-C Motif Chemokine Receptor 3 Splice Variants Differentially Activate Beta-Arrestins to Regulate Downstream Signaling Pathways. Mol Pharmacol 92, 136-150, doi:10.1124/mol.117.108522 (2017)). Second, receptor internalization following agonist stimulation was determined by measuring BRET signal from labeled receptor (β2V2R-RlucII or V2R-RlucII, BRET donor) and plasma membrane component (myr-palm-mVenus, BRET acceptor). Cells were transfected with 2.5 μg V2R-RlucII and 10 μg 2×FYVE-mVenus or 2 μg of myr-palm-mVenus using FuGENE HD (Promega, Madison, Wis.) in an individual 10 cm dish. ˜24 hours post-transfection, cells were seeded in white 96-well clear-bottomed plates at a density of 75,000 cells per well. The following day cells were washed and the media was changed to Hanks' Balanced Salt Solution (HBSS) buffer supplemented with 10 mM HEPES for 1 hours at 37° C. Cells were pretreated with βarr modulating compounds (50 μM) or vehicle, then incubated for 30 min at 37° C. Cells were stimulated with increasing doses of agonist isoproterenol or arginine vasopressin (GenScript). Coelenterazine-h was added to the cells 5 min prior to BRET measurements to a final concentration of 5 μM. BRET measurements were performed using the Synergy2 (BioTek®) microplate reader with a filter set of 410/80 nm and 515/30 nm to detect the RlucII (donor) and mVenus (acceptor) light emissions, respectively. The BRET signal was determined by calculating the ratio of the light intensity emitted by the acceptor over the light intensity emitted by the donor. Net BRET was calculated using this ratio and subtracting the same ratio measured from cells expressing only the BRET donor.

Compound | maximal agonist induced receptor-βarr internalization response [1] | isoproterenol-stimulated cAMP accumulation vs untreated control cells [2] | internalization of the receptor and association with early endosomes [3]
C=C1C(=O)OC2CC3(C)OC3CC/C(C)=C\C(OC(C)=O)C12 (stereo not drawn) [Cmpd-64, [(8Z)-3,8-dimethyl-12-methylidene-13-oxo-4,14-dioxatricyclo[9.3.0.03,5]tetradec-8-en-10-yl] acetate] | significantly diminished | increased cAMP accumulation | inhibit
CN(C)c1n/c(=N/Cc2ccco2)ss1 [Cmpd-30, 5-(furan-2-ylmethylimino)-N,N-dimethyl-1,2,4-dithiazol-3-amine;hydrobromide] | significantly diminished | increased cAMP accumulation | inhibit
C=C1C(=O)C23[C@H](O)C1CC[C@H]2[C@]12COC3(O)[C@@H](O)[C@@H]1C(C)(C)CC[C@@H]2O [Cmpd-5, (1R,2S,10S,11R,15S,18R)-9,10,15,18-tetrahydroxy-12,12-dimethyl-6-methylidene-17-oxapentacyclo[7.6.2.15,8.01,11.02,8]octadecan-7-one] | significantly diminished | increased cAMP accumulation | inhibit
